Experimental data: PubChem BioAssay AID1963447 (Molecular Pharmacology Branch, DTP, NCI, 2024)
pIC50: −log10 of the molar value.

Tested on: 885512-296-R-J2-PDC complex spheroid growth, % test/control
Test: Anticancer human tumor 885512-296-R-J2-PDC patient-derived breast carcinoma cell line growth inhibition [Asc]
Conditions: for pIC50: curve of first compound; for viability, T/C: stronger effect = lower value
Outline: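 Concentration series start at each agent's clinical Cmax, or at 10 microM when none is established, and drop in half-log steps; agents are applied alone or together to complex spheroids built with HUVEC and hMSC.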

[1] = second compound 0.01 µM, first compound 0.00316 µM
[2] = second compound 0.01 µM, first compound 0.01 µM
[3] = second compound 0.01 µM, first compound 0.0316 µM
[4] = second compound 0.01 µM, first compound 0.1 µM
[5] = second compound 0.01 µM, first compound 0.316 µM
[6] = second compound 0.01 µM, first compound 1 µM
[7] = second compound 0.0316 µM, first compound 0.00316 µM
[8] = second compound 0.0316 µM, first compound 0.01 µM
[9] = second compound 0.0316 µM, first compound 0.0316 µM
[10] = second compound 0.0316 µM, first compound 0.1 µM
[11] = second compound 0.0316 µM, first compound 0.316 µM
[12] = second compound 0.0316 µM, first compound 1 µM
[13] = second compound 0.1 µM, first compound 0.00316 µM
[14] = second compound 0.1 µM, first compound 0.01 µM
[15] = second compound 0.1 µM, first compound 0.0316 µM
[16] = second compound 0.1 µM, first compound 0.1 µM
[17] = second compound 0.1 µM, first compound 0.316 µM
[18] = second compound 0.1 µM, first compound 1 µM
[19] = second compound 0.316 µM, first compound 0.00316 µM
[20] = second compound 0.316 µM, first compound 0.01 µM
[21] = second compound 0.316 µM, first compound 0.0316 µM
[22] = second compound 0.316 µM, first compound 0.1 µM
[23] = second compound 0.316 µM, first compound 0.316 µM
[24] = second compound 0.316 µM, first compound 1 µM
[25] = second compound 1 µM, first compound 0.00316 µM
[26] = second compound 1 µM, first compound 0.01 µM
[27] = second compound 1 µM, first compound 0.0316 µM
[28] = second compound 1 µM, first compound 0.1 µM
[29] = second compound 1 µM, first compound 0.316 µM
[30] = second compound 1 µM, first compound 1 µM
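Note: spheroids exposed to compounds for seven days.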
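Throughout, for viability, T/C: 100% = DMSO vehicle control wells.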

Compound | pIC50 (second compound 0.01 µM) | pIC50 (second compound 0.0316 µM) | pIC50 (second compound 0.1 µM) | pIC50 (second compound 0.316 µM) | pIC50 (second compound 1 µM) | viability, T/C [1] [%] | viability, T/C [2] [%] | viability, T/C [3] [%] | viability, T/C [4] [%] | viability, T/C [5] [%] | viability, T/C [6] [%] | viability, T/C [7] [%] | viability, T/C [8] [%] | viability, T/C [9] [%] | viability, T/C [10] [%] | viability, T/C [11] [%] | viability, T/C [12] [%] | viability, T/C [13] [%] | viability, T/C [14] [%] | viability, T/C [15] [%] | other results
CCN1CCN(Cc2ccc(Nc3ncc(F)c(-c4cc(F)c5nc(C)n(C(C)C)c5c4)n3)nc2)CC1 + CNC(C)C(=O)NC1CN(S(=O)(=O)c2cccc(S(=O)(=O)N3CCC4CCC(C(=O)NC(c5ccccc5)c5ccccc5)N4C(=O)C(NC(=O)C(C)NC)C3)c2)CCC2CCC(C(=O)NC(c3ccccc3)c3ccccc3)N2C1=O | 6.68 | < 6.00 | 6.13 | < 6.00 | < 6.00 | 79.9 | 104 | 82.6 | 56.7 | 49.2 | 26 | 102 | 106 | 104 | 82.6 | 71.6 | 49.9 | 115 | 107 | 116 | viability, T/C [16]: 91.4%; viability, T/C [17]: 71.3%; viability, T/C [18]: 42.7%; viability, T/C [19]: 110%; viability, T/C [20]: 112%; viability, T/C [21]: 103%; viability, T/C [22]: 90.8%; viability, T/C [23]: 64.6%; viability, T/C [24]: 50.3%; viability, T/C [25]: 112%; viability, T/C [26]: 112%; viability, T/C [27]: 111%; viability, T/C [28]: 87.5%; viability, T/C [29]: 87.6%; viability, T/C [30]: 68.3%
COc1c(OCCCN2CCOCC2)ccc2c3n(c(=NC(=O)c4cnc(N)nc4)nc12)CCN3 + CNC(C)C(=O)NC1CN(S(=O)(=O)c2cccc(S(=O)(=O)N3CCC4CCC(C(=O)NC(c5ccccc5)c5ccccc5)N4C(=O)C(NC(=O)C(C)NC)C3)c2)CCC2CCC(C(=O)NC(c3ccccc3)c3ccccc3)N2C1=O | 6.45 | 6.40 | 6.41 | 6.39 | 6.46 | 85.2 | 86.4 | 79.6 | 88.2 | 55.1 | 7.8 | 98.4 | 92.1 | 89.3 | 85.3 | 59.3 | 8.15 | 104 | 98.6 | 86.3 | viability, T/C [16]: 81.8%; viability, T/C [17]: 61.5%; viability, T/C [18]: 8.94%; viability, T/C [19]: 89.5%; viability, T/C [20]: 93.2%; viability, T/C [21]: 97.4%; viability, T/C [22]: 83.6%; viability, T/C [23]: 62.6%; viability, T/C [24]: 7.92%; viability, T/C [25]: 102%; viability, T/C [26]: 105%; viability, T/C [27]: 99.8%; viability, T/C [28]: 79%; viability, T/C [29]: 54.5%; viability, T/C [30]: 8.06%
